Measured values published in patent publication US5614627A, “Quinazoline compounds” (Eisai Co., Ltd., priority 1993, dated 1997).
Where a name gives a salt, the structure may show the parent alone.

Molecular target: T1, calmodulin-dependent cGMP-phosphodiesterase (CaM-PDE) (Sus scrofa, UniProt A0A5G2RLV3)
T1 construct: prepared from swine aorta; from tissue; host or cells: swine aorta
Assay: enzyme-inhibitory activity with calmodulin-dependent cGMP-phosphodiesterase (CaM-PDE) obtained from swine aorta
Assay type: biochemical
Conditions: 1 μM cGMP as substrate, 1 mM Ca++, calmodulin 250 U/ml, DMSO 4% or below
Protocol: Study on enzyme-inhibitory activity with calmodulin-dependent cGMP-phosphodiesterase obtained from swine aorta The enzyme activity of calmodulin-dependent cGMP-phosphodiesterase (hereinafter referred to CaM-PDE) prepared from swine aorta was determined according to the method of Thompson et al. The emzyme activity was determined in the presence of 1 mM of calcium ion (Ca^++) and calmodulin (250 U/ml) by the use of 1 μM of cGMP as the substrate. The compound of the present invention was dissolved in DMSO and added to the reaction liquid. The final concentration of DMSO in the reaction solution was adjusted to 4% or below. The preparation of the CaM-PDE was effected according to the method [[…]. and Saito, I., Isolation of cyclic nucleotide phosphodiesterase isozymes from pig aorta, Biochem. Pharmacol. in press] by the use of swine aorta. The CaM-PDE inhibitory activity of the compounds of the present invention as determined by the above method are given in Table 1.

IC50	SMILES
420 nM	COc1cc2c(N3CCC(C(=O)O)CC3)ncnc2c(OC)c1OC [Example 20, 4-(4-Carboxypiperidino)-6,7,8-trimethoxyquinazoline]
1900 nM	COc1cc2c(NCCCO)ncnc2c(OC)c1OC [Example 35, 4-(3-Hydroxypropyl)amino-6,7.8-trimethoxyquinazoline]
170 nM	CCCNc1ncnc2c(OC)c(OC)c(OC)cc12 [Example 40, 4-Propylamino-6,7-trimethoxyquinazoline]
300 nM	CCN(CC)c1ncnc2c(OC)c(OC)c(OC)cc12 [Example 41, 4-Diethylamino-6,7,8-trimethoxyquinazoline hydrochloride]
11600 nM	COc1cc2c(N3CCC(C(=O)c4ccc(F)cc4)CC3)ncnc2c(OC)c1OC [Example 57, 4-[4-(4-Fluorobenzoyl)piperidino]-6,7,8-trimethoxyquinazoline]
2800 nM	COc1cc2c(N3CCC(C(O)c4ccc(F)cc4)CC3)ncnc2c(OC)c1OC (stereo not drawn) [Example 58, 4-[4-(4-Fluoro-α-hydroxybenzyl)piperidino]-6,7,8-trimethoxyquinazolin]
1100 nM	COc1cc2c(N3CCC(=O)CC3)ncnc2c(OC)c1OC [Example 61, 4-(4-Oxopiperidino)-6,7,8-trimethoxyquinazoline]
740 nM	COc1cc2c(N3CCC(O)CC3)ncnc2c(OC)c1OC [Example 62, 4-(4-Hydroxypiperidino)-6,7,8-trimethoxyquinazoline]
10700 nM	COc1cc2c(N3CCN(c4ncccn4)CC3)ncnc2c(OC)c1OC [Example 65, 4-[4-(2-Pyrimidyl)piperazin-1-yl]-6,7,8-trimethoxyquinazoline]
4000 nM	COc1cc2c(N3CCOCC3)ncnc2c(OC)c1OC [Example 68, 4-Morpholino-6,7,8-trimethoxyquinazoline hydrochloride]

Further lines, the compound ahead of its results:

SMILES	IC50
COc1cc2c(NCCCC(=O)O)ncnc2c(OC)c1OC [Example 2, 4-(3-Carboxypropyl)amino-6,7,8-trimethoxyquinazoline]	480 nM
CCOC(=O)CCCCCNc1ncnc2c(OC)c(OC)c(OC)cc12 [Example 3, 4-(5-Ethoxycarbonylpentyl)amino-6,7,8-trimethoxyquinazoline]	2350 nM
CCOC(=O)CCNc1ncnc2c(OC)c(OC)c(OC)cc12 [Example 7, 4-(2-Ethoxycarbonylethyl)amino-6,7,8-trimethoxyquinazoline]	4620 nM
O=C(O)CCCCCNc1ncnc2ccc(Cl)cc12 [Example 10, 4-(5-Carboxypentyl)amino-6-chloroquinazolne]	53900 nM
COc1cc2c(NCCCCCCC(=O)O)ncnc2c(OC)c1OC [Example 12, 4-(6-Carboxyhexyl)amino-6,7,8-trimethoxyquinazoline]	3500 nM
COc1cc2c(NCCC(=O)O)ncnc2c(OC)c1OC [Example 13, 4-(2-Carboxyethyl)amino-6,7,8-trimethoxyquinazoline]	2370 nM
COc1cc2c(NCCCCC(=O)O)ncnc2c(OC)c1OC [Example 14, 4-(4-Carboxybutyl)amino-6,7,8-trimethoxyuinazoline]	1290 nM
COc1cc2c(NCCCCCCCC(=O)O)ncnc2c(OC)c1OC [Example 15, 4-(7-Carboxyheptyl)amino-6,7,8,-trimethoxyquinazoline]	3620 nM
COc1cc2c(NCCCCCC(=O)O)ncnc2c(OC)c1OC [Example 16, 4-(5-Carboxypentyl)amino-6,7,8-trimethoxyquinazoline]	1650 nM
COc1cc2c(N(C)CCCC(=O)O)ncnc2c(OC)c1OC [Example 18, 4-[N-(3-Carboxypropyl)-N-methylaminol-]6,7,8, -trimethoxyquinazoline]	730 nM
COc1cc2c(NCCCCC#N)ncnc2c(OC)c1OC [Example 32, 4-(4-Cyanobutyl)amino-6,7,8-trimethoxyquinzaoline]	6400 nM
Clc1ccc2ncnc(NCCCn3ccnc3)c2c1 [Example 38, 6-Chloro-4-[3-(imidazol-1-yl)propyl]aminoquinazoline]	7900 nM
CCN(CC)c1ncnc2c(OC)cc(OC)cc12 [Example 43, 4-Diethylamino-6,8-dimethoxyquinazoline hydrochloride]	740 nM
CCN(CC)c1nc(Cl)nc2c(OC)c(OC)c(OC)cc12 [Example 51, 2-Chloro-4-diethylamino-6,7,8-trimethoxyquinazoline]	4300 nM
